Values of other authors as cited in US9149457B2, “Nutraceutical composition for PDE4 inhibition, enhanced dopamine metabolism and long term potentiation” (priority 2013, dated 2015).
Blank lines part the entries; values can stand above or below the molecule they belong to.

Tests used:
[1] = references 7-13
[2] = references 46-47
[3] = tested on: phosphodiesterase enzymes (PDE 1 through 5); settings: references 24-27
acetylcholine = settings: references 33-35

SMILES: COc1ccc(C2CNC(=O)C2)cc1OC1CCCC1 (stereo not shown) [rolipram]
- side effect [1]: emesis (vomiting) at low doses

SMILES: O=C(/C=C/C=C/c1ccc2c(c1)OCO2)N1CCCCC1 [Piperine, piperine]
- bioavailability of resveratrol [2]: enhance the bioavailability of resveratrol

- inhibition of phosphodiesterase enzymes that degrade 3',5'-cyclic nucleotides [3]: can inhibit
SMILES: O=c1cc(-c2ccc(O)c(O)c2)oc2cc(O)cc(O)c12 [Luteolin, luteolin]

SMILES: CC(=O)O[C@H](CC(=O)[O-])C[N+](C)(C)C [Acetyl-L-carnitine, acetyl-L-carnitine]
- levels of acetylcholine in the brain (acetylcholine): increase the levels
